Results on 24 compounds are retold here after patent US5939419A, “2-benzyl-polycyclic guanine derivatives and process for preparing them” (Schering-Plough Corporation, priority 1995, dated 1999).

Experiment [1] has as its target T1, calcium-calmodulin dependent phosphodiesterase (CaM-PDE) (Bos taurus, UniProt P14100).
T1 construct: from tissue; host or cells: bovine aorta
Put plainly: Phosphodiesterase inhibition in vitro, calcium-calmodulin dependent phosphodiesterase (CaM-PDE), 3H-cGMP substrate. In kind it is biochemical. The conditions noted are these: CaM-PDE from bovine aorta; 1 μM 3H-cGMP; pH 7.5; 25 minutes at room temperature.

Experiment [2] concerns spontaneously hypertensive rats (SHR). Put plainly: Antihypertensive activity in conscious spontaneously hypertensive rats (SHR), oral. Format: in vivo, rat. The text has this:
The present compounds are useful in inhibiting the phosphodiesterase enzymes. These phosphodiesterase enzymes are known to hydrolyze cGMP in smooth muscle. High levels of cGMP are associated with the relaxation of vascular smooth muscle, with a consequent subsequent reduction in blood pressure. Thus, it is believed that by inhibiting these phosphodiesterase enzymes, cGMP levels in muscle will be either maintained or increased, with a subsequent reduction in blood pressure. In vivo antihypertensive activity is determined orally in spontaneously hypertensive rats (SHR).
Antihypertensive activity in rats
The ability of the compounds of the present invention to lower blood pressure can be assessed in vivo in conscious spontaneously hypertensive rats (SHR). SHR males are purchased from Taconic Farms, Germantown, N.Y. and are approximately 16-18 weeks old when anesthetized with ether. The caudal (ventral tail) artery is cannulated with polyethylene tubing (PE50) and blood pressure and heart rate are recorded as described by Baum, T. et. al, J. Cardiovasc. Pharmacol. Vol 5, pp. 655-667, (1983). Rats are placed into plastic cylindrical cages where they rapidly recover consciousness. Blood pressure and heart rate are allowed to stabilize for approximately 90 minutes prior to compound administration. […] Activity is expressed as the fall in mean blood pressure (MBP) in millimeters of mercury (mm Hg). […]

Regarding `CN1C(=O)c2[nH]c(Cc3ccc(N4CCOCC4)cc3)nc2N2C1=N[C@@H]1CCC[C@@H]12` [Example 3C], the IC50 (usually the midpoint of a concentration-inhibition curve) in experiment [1] amounted to 200 nM.
The same measure, in the same setting: to `CN1C(=O)c2[nH]c(Cc3ccc(-c4ccccc4)cc3)nc2N2C1=N[C@@H]1CCC[C@@H]12` [Example 3H] belongs less than 100 nM; to `Cc1ccc(Cc2nc3c([nH]2)C(=O)N(C)C2=N[C@@H]4CCC[C@@H]4N23)cc1` [Example 3A], 100 nM.
For `COc1ccc(Cc2nc3c([nH]2)C(=O)N(C)C2=N[C@@H]4CCC[C@@H]4N23)cc1` [Example 1B], in experiment [1], the IC50 was determined as 200 nM.
For `CC(C)[C@@H]1CN2C(=N1)N(C)C(=O)c1[nH]c(Cc3ccccc3)nc12` [Example 10], the IC50 in experiment [1] turned out to be 100 nM.
Regarding `CN1C(=O)c2[nH]c(Cc3ccc(C(F)(F)F)cc3)nc2N2C1=N[C@@H]1CCC[C@@H]12` [Example 1C], the half-maximal inhibitory concentration (IC50) in experiment [1] was determined as 600 nM.
`CN1C(=O)c2[nH]c(Cc3ccc4c(c3)OCO4)nc2N2C1=N[C@@H]1CCC[C@@H]12` [Example 3G]: the IC50 in experiment [1] is 300 nM.
In the case of `COc1cc(Cc2nc3c([nH]2)C(=O)N(C)C2=N[C@@H]4CCC[C@@H]4N23)cc(OC)c1OC` [Example 2A], the half-inhibitory concentration (IC50) in experiment [1] turned out to be 700 nM.
As to `CN1C(=O)c2[nH]c(Cc3ccccc3)nc2N2CC3(CCCC3)N=C12` [Example 8], the IC50 in experiment [1] was 100 nM.
As for `CN1C(=O)c2[nH]cnc2N2C1=N[C@@H]1CCC[C@@H]12` (relative stereo) [Compound B, cis-5,6a,7,8,9,9a-hexahydro-5-methylcyclopenta-[4,5]imidazo[2,1-b]-purin-4(3H)-one, reference compound], the “SHR: fall in MBP at 25 mpk” value in experiment [2] is listed as 32 mmHg. In addition, the IC50 in experiment [1] was determined as 33000 nM.
For `CN1C(=O)c2[nH]c(Cc3ccc(O)cc3)nc2N2C1=N[C@@H]1CCC[C@@H]12` [Example 3], the IC50 in experiment [1] is less than 100 nM.
Consider `CN1C(=O)c2[nH]c(Cc3ccc4c(c3)OCO4)nc2N2C1=NC13CCCC1CCC23` (centres unmarked) [Example 11], for which the IC50 in experiment [1] was 200 nM.
The same measure, in the same setting: to `CN1C(=O)c2[nH]c(Cc3ccc(F)cc3)nc2N2C1=N[C@@H]1CCC[C@@H]12` [Example 1A] belongs less than 100 nM; to `CN1C(=O)c2[nH]c(Cc3ccc(Cl)cc3)nc2N2C1=N[C@@H]1CCC[C@@H]12` [Example 7], 650 nM.
The same measure, in the same setting: to `CN1C(=O)c2[nH]c(Cc3ccccc3)nc2N2C1=N[C@@H]1CCC[C@@H]12` [Example 1] belongs 100 nM.
For `CN1C(=O)c2[nH]c(Cc3cccc(C(F)(F)F)c3)nc2N2C1=N[C@@H]1CCC[C@@H]12` [Example 3F], the IC50 in experiment [1] was found to be 800 nM.
As to `COc1ccc(Cc2nc3c([nH]2)C(=O)N(C)C2=N[C@@H]4CCC[C@@H]4N23)cc1OC` [Example 2B], the IC50 in experiment [1] was 400 nM.
Consider `CN1C(=O)c2[nH]c(Cc3ccc(N(C)C)cc3)nc2N2C1=N[C@@H]1CCC[C@@H]12` [Example 2], for which the IC50 in experiment [1] is less than 100 nM.
For the compound `CN1C(=O)c2[nH]c(Cc3ccc(C(F)(F)F)cc3)nc2N2C1=N[C@@H]1COC[C@@H]12` [Example 12], the IC50 in experiment [1] is 3000 nM.
Turning to `CN1C(=O)c2[nH]c(Cc3ccc4ccccc4c3)nc2N2C1=N[C@@H]1CCC[C@@H]12` [Example 6], the IC50 in experiment [1] came out at 480 nM.
For the compound `CN1C(=O)c2[nH]c(Cc3ccc(OC(F)(F)F)cc3)nc2N2C1=N[C@@H]1CCC[C@@H]12` [Example 3B], the 50% inhibitory concentration (IC50) in experiment [1] was determined as 600 nM.
Take `CN1C(=O)c2[nH]c(Cc3ccccc3)nc2N2C1=N[C@@H]1CCC[C@@H]12` (relative stereo) [Compound A, reference compound]: in experiment [2], the “SHR: fall in MBP at 25 mpk” value worked out at 6 mmHg. Also, in experiment [1], the 50% inhibitory concentration (IC50) was determined as 200 nM.
Regarding `CN1C(=O)c2[nH]c(Cc3ccccc3)nc2N2CC(C)(C)N=C12` [Example 9], the IC50 in experiment [1] came to 300 nM.
Turning to `COc1cccc(Cc2nc3c([nH]2)C(=O)N(C)C2=N[C@@H]4CCC[C@@H]4N23)c1` [Example 3E], the IC50 in experiment [1] turned out to be 900 nM.
